Data published in ChEMBL document CHEMBL1155644, “New marine cembrane-type diterpenoids from the Okinawan soft coral Clavularia koellikeri” (J Nat Prod, 2000).
In brackets after ≈: the same amount, converted by molar mass. Activity calls are given as the source filed them. The rule behind the calls is not given here.

Columns and labels:
Format in all cases: functional, cell-based
MOLT-4 [1] = assay: Cytotoxicity against human MOLT4 cells at 0.6 uM/mL
DLD-1 [2] = assay: Cytotoxicity against human DLD1 cells at 0.6 uM/mL
MOLT-4 [3] = assay: Cytotoxicity against human MOLT4 cells
DLD-1 [4] = assay: Cytotoxicity against human DLD1 cells

Structure (SMILES)	Activity (MOLT-4 [1])	Activity (DLD-1 [2])	IC50 (MOLT-4 [3]) [µg/mL]	IC50 (DLD-1 [4]) [µg/mL]
C=C1C(=O)O[C@H]2/C=C(\C)C[C@H](OC(C)=O)/C=C(\C)CC/C=C(\C)C[C@H](O)[C@H]12	Active	Active	–	–
C=C1C(=O)O[C@H]2/C=C(\C)C[C@H](OC(C)=O)/C=C(\C)C[C@H](OC(C)=O)/C=C(\C)C[C@H](OC(C)=O)[C@H]12	Active	Active	0.9 (≈ 1.9 µM)	4.2 (≈ 8.85 µM)
